Results on eleven molecules are retold here after patent publication US8232278B2 (Gilead Sciences, Inc., priority 2005, dated 2012).

The test system of one data set is Huh-7 HCV replicon cells. Kind of data set: CC50 assay in Huh-7 HCV replicon cells (CellTiter-Glo). The data set is classed as cell-based, human. The conditions noted are these: 3 days, 50% cytostatic concentration. In outline:
(§1)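 Huh-7 cells carrying an HCV replicon, 6000 per well, were exposed to 3-fold serial compound dilutions (0.5% DMSO final where DMSO was used) for 3 days at 37 °C. EC50 was read by luciferase after cell lysis; CC50 was taken as 50% inhibition of cell growth.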
For orientation: Replicon systems follow genome replication, usually without infectious particles.

In a further data set the test system is HCV replicon. Kind of data set: Anti-HCV assay / replicon assay (EC50, luciferase read-out). The settings on record: for CC50/EC50: CC50/EC50 ratio (selectivity index). Type of data set: cell-based, hepatitis C virus (HCV). In short, it runs like this:
as §1

The subject of data set [1] is wild-type HIV-1 strain IIIB. Kind of data set: HIV-1 assay (XTT, HIV-induced cytopathic effect in MT-2 cells). The data set is classed as cell-based. The settings on record: for inhibition at 5 µM: read-out: MT2 HIV % inhib. @ 5 μM. The protocol: This assay is based on the quantification of the HIV-induced cytopathic effect by a calorimetric detection of the viability of virus-infected cells in the presence or absence of tested inhibitors. The HIV-induced cell death was determined by using as a metabolic substrate 2,3-bis(2-methoxy-4-nitro-5-sulfophenyl)-2H-tetrazolium-5-carboxanilide (hereinafter referred as XTT) which was converted only by live cells into a product with specific absorption characteristics, as described by Weislow et al., J. Natl. Cancer Inst. (1989) 81:577.
The assay protocol for the determination of EC50 includes the following steps: • 1. MT-2 cells were maintained in RPMI-1640 medium supplemented with 10% fetal bovine serum, glutamine and antibiotics. • 2. Cells were infected by the wild-type HIV-1 strain IIIB (ABI, Columbia, Md.) for 3 hours at 37° C. using a multiplicity of infection (MOI) of 0.01. • 3. Prepare a set of solutions containing various concentrations of the tested inhibitor by making 5-fold serial dilutions in 96-well plate (100 μl/well). Alternatively, test single drug concentration (100 μl/well). Distribute the infected cells into the 96-well plate containing the inhibitors (20,000 cells in 100 μl/well). Include the following control samples, untreated infected cells (100% cell death) and control drug-treated infected cells (full protection). • 4. Incubate the cells for 5 days at 37° C. • 5. Prepare XTT solution (6 mL per assay plate) at a concentration of 2 mg/mL in a phosphate-buffered saline at pH 7.4. Heat the solution in water-bath for 10 minutes at 56° C. Add 50 μl of N-methylphenazonium methasulfate (5 μg/mL) per 6 mL of XTT solution. • 6. Remove 100 μl media from each well on the assay plate. • 7. Add 100 μl of the XTT substrate solution per well and incubate at 37° C. for 45 to 60 minutes in a CO2 incubator. • 8. Add 20 μl of 2% Triton X-100 per well to inactivate the virus. • 9. Read the absorbance at 450 nm with subtracting off the background absorbance at 650 nm. • 10. Plot the percentage absorbance relative to untreated control and estimate the EC50 value as drug concentration resulting in a 50% protection of the infected cells. Alternatively, calculate the percentage of inhibition for a fixed concentration, relative to the full protection with the control drug.
This assay has been performed on a set of compounds of the invention, and results are reported in table 8 below, also indicating the nature of substituents being present in positions 4 and 6 of the pyrido[3,2-d]pyrimidine derivatives of the invention (all being amino-substituted in position 2).
(Formazan colour is commonly taken as a measure of viable cells.)

Data set [2] can be described thus: CC50 assay in Huh-7 HCV replicon cells (CellTiter-Glo). The data set is classed as cell-based, human. The conditions noted are these: human, 50% cytostatic concentration. In short, it runs like this: as §1
The mark [3] stands for this setting: Hepatitis C virus, 72 h, human hepatoma Huh-7 cell line harbouring a HCV replicon, 3 days, luciferase luminescence, read-out: EC50.
The mark [4] stands for this setting: Human immunodeficiency virus 1, MT2, 120 h, 5 μM, MT-2 cells infected with HIV-1 IIIB, 5 days, XTT.

Read-outs that look alike come from different tables or passages of the source.

Usually melting point stands for the temperature, or range, at which the solid turns liquid. For orientation: CC50 means the concentration at which the toxic effect on the cells reaches its halfway point. Broadly, the EC50 is the concentration needed to bring the measured effect to its halfway point.

For the molecule `CCOCCOc1nc(N)nc2ccc(-c3cccc(F)c3)nc12` [Example 303, 2-amino-4-(2-ethoxyethoxy)-6-(3-fluorophenyl)-pyrido[3,2-d]pyrimidine], the melting point is 165 °C. For the same molecule, the CC50 with Huh-7 HCV replicon cells was 50.1 µM. For the same molecule, in the data set with HCV replicon, the CC50/EC50 was determined as 89. For the same molecule, the EC50 in the data set on HCV replicon (setting [3]) was 0.56 µM. Moreover, in data set [1] (setting [4]), the inhibition at 5 µM was found to be 8%.

`Nc1nc(OCc2ccccc2)c2nc(-c3ccc(F)cc3)ccc2n1` [Example 211, 2-amino-4-benzyloxy-6-(p-fluorophenyl)-pyrido[3,2-d]pyrimidine] had a CC50 at 3 days in data set [2] of 37.5 µM. Moreover, the CC50/EC50 with HCV replicon amounted to 179. For the same molecule, in the data set with HCV replicon (setting [3]), the EC50 turned out to be 0.21 µM. Further, the inhibition at 5 µM in data set [1] (setting [4]) came to 17%.

For `CCOCCOc1nc(N)nc2ccc(-c3ccccc3F)nc12` [Example 302, 2-amino-4-(2-ethoxyethoxy)-6-(2-fluorophenyl)-pyrido[3,2-d]pyrimidine], the melting point was determined as 163 °C.

Take `CC(C)Oc1nc(N)nc2ccc(-c3ccc(F)cc3)nc12` [Example 286, 2-amino-4-isopropoxy-6-(p-fluorophenyl)-pyrido[3,2-d]pyrimidine]: in the data set on Huh-7 HCV replicon cells, it took 50.1 µM to reach half-maximal cytotoxicity (CC50). The CC50/EC50 in the data set with HCV replicon is 1113. The EC50 in the data set on HCV replicon (setting [3]) came out at 0.045 µM. Besides, the inhibition at 5 µM in data set [1] (setting [4]) turned out to be 11%.

Turning to `Nc1nc(OCc2ccccc2)c2nc(-c3cccc(F)c3)ccc2n1` [Example 210, 2-amino-4-benzyloxy-6-(m-fluorophenyl)-pyrido[3,2-d]pyrimidine], the midpoint of cytotoxicity in data set [2], the CC50 at 3 days, lay at 18.8 µM. Also, in the data set on HCV replicon, the CC50/EC50 was 85. Besides, the EC50 with HCV replicon (Hepatitis C virus, Huh-7, 72 h) was determined as 0.22 µM. The inhibition at 5 µM in data set [1] (Human immunodeficiency virus 1, IIIB, MT2, 120 h) was found to be 5%.

The molecule `CCOc1nc(N)nc2ccc(-c3ccc(NC(C)=O)cc3)nc12` [Example 353, 2-amino-4-ethoxy-6-(p-acetamidophenyl)pyrido(3,2-d)pyrimidine] returned a CC50 at 3 days in data set [2] of 25.1 µM. In the data set on HCV replicon, the CC50/EC50 came to 56. In addition, in the data set on HCV replicon (setting [3]), the EC50 amounted to 0.45 µM. For the same molecule, in data set [1] (setting [4]), the inhibition at 5 µM is 4%.

`CCOc1nc(N)nc2ccc(-c3ccc(F)cc3)nc12` [Example 281, 2-amino-4-ethoxy-6-(p-fluorophenyl)pyrido[3,2-d]-pyrimidine]: the CC50 with Huh-7 HCV replicon cells is 50.1 µM. Further, the CC50/EC50 in the data set on HCV replicon was found to be 856. Also, the EC50 with HCV replicon (setting [3]) was found to be 0.059 µM. Moreover, in data set [1] (setting [4]), the inhibition at 5 µM was determined as 17%.

`CCOCCOc1nc(N)nc2ccc(-c3ccc(F)cc3)nc12` [Example 304, 2-amino-4-(2-ethoxyethoxy)-6-(4-fluorophenyl)-pyrido[3,2-d]pyrimidine] gave a melting point of 192 °C. Moreover, the midpoint of cytotoxicity in data set [2], the CC50 at 3 days, lay at 37.5 µM. The CC50/EC50 in the data set on HCV replicon is listed as 852. Besides, the EC50 with HCV replicon (setting [3]) was found to be 0.044 µM. For the same molecule, in data set [1] (setting [4]), the inhibition at 5 µM was found to be 9%.

`COCCOc1nc(N)nc2ccc(-c3ccc(F)cc3)nc12` [Example 305, 2-amino-4-(2-methoxyethoxy)-6-(4-fluorophenyl)-pyrido[3,2-d]pyrimidine] displayed a melting point of 204 °C. Also, the CC50 in the data set on Huh-7 HCV replicon cells was 50.1 µM. Besides, in the data set on HCV replicon, the CC50/EC50 is given as 2863. The EC50 with HCV replicon (setting [3]) is 0.018 µM.

Turning to “6-(3,4-difluoro-phenyl)-4-ethoxy-pyrido[3,2-d]pyrimidin-2-ylamine [Example 460]”, the CC50 with Huh-7 HCV replicon cells came to 16.3 µM. For the same molecule, the CC50/EC50 with HCV replicon is recorded as 145. Further, the EC50 at HCV replicon (human hepatoma Huh-7 cell line harbouring a HCV replicon, 3 days, luciferase luminescence, read-out: EC50) was 0.113 µM. In addition, the “MT2 HIV % inhib. @ 5 μM” value in data set [1] (5 μM, MT-2 cells infected with HIV-1 IIIB, 5 days, XTT) is listed as 11%.

For `CC(=O)N1CCN(c2nc(N)nc3ccc(-c4ccc(F)cc4)nc23)CC1` [Example 320, 2-amino-4-(N-acetylpiperazino)-6-(4-fluorophenyl)-pyrido[3,2-d]pyrimidine], the CC50 at 3 days in data set [2] came to 19.9 µM. Further, the CC50/EC50 in the data set on HCV replicon turned out to be 87. In addition, in the data set on HCV replicon (setting [3]), the EC50 worked out at 0.23 µM. Also, in data set [1] (setting [4]), the inhibition at 5 µM came out at 12%.
